Test results from BigSolDB 2.1.

CO[C@@]1(NC(=O)Cc2cccs2)C(=O)N2C(C(=O)O)=C(COC(N)=O)CS[C@@H]21
solubility (mole fraction)
Details | 278.15 K | 283.15 K | 288.15 K | 293.15 K | 298.15 K | 303.15 K | 308.15 K
in acetonitrile | 0.000452 | 0.000491 | 0.000528 | 0.00058 | 0.000621 | 0.000677 | 0.00076
in ethanol | 0.000403 | 0.000484 | 0.000603 | 0.000739 | 0.000852 | 0.00103 | 0.00118
in ethyl acetate | 0.000229 | 0.000241 | 0.000257 | 0.000267 | 0.000282 | 0.000296 | 0.00032
in isopropanol | 4.4e-05 | 7.19e-05 | 0.000109 | 0.000151 | 0.000186 | 0.000243 | 0.000314
in methanol | 0.00565 | 0.00658 | 0.00772 | 0.00919 | 0.011 | 0.0129 | 0.0149
in n-propanol | 0.000209 | 0.000253 | 0.000286 | 0.000338 | 0.000394 | 0.000492 | 0.000561
